These results are taken from article PMC3241856 (ACS chemical biology, 2011).

The assay has as its target mu opioid receptor (MOR) (Rattus norvegicus, UniProt P33535). The assay can be described thus: Stimulation of [35S]GTPγS binding, C6-MOR membranes. It is filed as biochemical. As to conditions: 10 μM peptide compared to 10 μM DAMGO. In general terms: GTPγS resists hydrolysis and so accumulates on activated G proteins.

mu opioid receptor (MOR), sequence (P33535 whole entry): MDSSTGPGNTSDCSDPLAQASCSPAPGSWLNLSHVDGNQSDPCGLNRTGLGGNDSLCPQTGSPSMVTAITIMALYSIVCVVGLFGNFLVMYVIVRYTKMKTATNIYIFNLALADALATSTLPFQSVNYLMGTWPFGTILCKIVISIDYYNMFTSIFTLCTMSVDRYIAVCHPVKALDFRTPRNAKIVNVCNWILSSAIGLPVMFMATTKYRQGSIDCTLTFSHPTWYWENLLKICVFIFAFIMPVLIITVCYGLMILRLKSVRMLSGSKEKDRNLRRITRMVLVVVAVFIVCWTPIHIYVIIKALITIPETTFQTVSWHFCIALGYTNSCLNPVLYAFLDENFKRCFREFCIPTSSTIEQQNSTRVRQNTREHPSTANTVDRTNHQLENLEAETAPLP

For the compound `NC(=O)[C@H](Cc1ccccc1)NC(=O)[C@H](Cc1ccccc1)NC(=O)[C@@H]1CCCN1C(=O)[C@@H](N)Cc1ccc(O)cc1` [endomorphin-2], the “MOR % max. stimulation of [35S]GTPγS binding” value is 49 ± 7%.
